test system: CL145A (ATCC 55799); test: Antibiotic resistance profile, antibiotic discs on Mueller-Hinton agar; conditions: 72 hours incubation
Procedure: One glycerol stock vial of CL145A was equally distributed onto Mueller-Hinton Agar plates (100 μl per plate) and spread on the plate using a sterile cell spreader. Antibiotic discs were then placed onto the plates along with a blank sterile disc. Plates were incubated at 25° C. in the dark for 72 hours.

With `CCN1CCN(C(=O)N[C@@H](C(=O)N[C@@H]2C(=O)N3[C@@H]2SC(C)(C)[C@@H]3C(=O)O)c2ccccc2)C(=O)C1=O` [Piperacillin] as the compound, how does the “CL145A resistant or sensitive to the antibiotic (growth inhibited by the antibiotic disc)” value read?
The value was “sensitive”.

How did the “CL145A resistant or sensitive to the antibiotic (growth inhibited by the antibiotic disc)” value turn out when Gentamicin was run?
Its value is “sensitive”.

How did the “CL145A resistant or sensitive to the antibiotic (growth inhibited by the antibiotic disc)” value turn out when `[H]/N=C(/N)N[C@H]1[C@H](O)[C@@H](O)[C@H](O[C@@H]2O[C@@H](C)[C@](O)(C=O)[C@H]2O[C@@H]2O[C@@H](CO)[C@H](O)[C@@H](O)[C@@H]2NC)[C@@H](N/C(N)=N\[H])[C@@H]1O` [Streptomycin] was run?
Its value is “resistant”.

Which “CL145A resistant or sensitive to the antibiotic (growth inhibited by the antibiotic disc)” value does the source give for `CC1(C)S[C@@H]2[C@H](NC(=O)[C@H](N)c3ccccc3)C(=O)N2[C@H]1C(=O)O` [Ampicillin] here?
The value was “resistant”.

With `CO/N=C(\C(=O)N[C@@H]1C(=O)N2C(C(=O)O)=C(COC(N)=O)CS[C@H]12)c1ccco1` [Cefuroxime] as the compound, how does the “CL145A resistant or sensitive to the antibiotic (growth inhibited by the antibiotic disc)” value read?
The value was “resistant”.

How did the “CL145A resistant or sensitive to the antibiotic (growth inhibited by the antibiotic disc)” value turn out when `CC[C@H]1OC(=O)[C@H](C)[C@@H](O[C@H]2C[C@@](C)(OC)[C@@H](O)[C@H](C)O2)[C@H](C)[C@@H](O[C@@H]2O[C@H](C)C[C@H](N(C)C)[C@H]2O)[C@](C)(O)C[C@@H](C)C(=O)[C@H](C)[C@@H](O)[C@]1(C)O` [Erythromycin] was run?
The value was “resistant”.

Which “CL145A resistant or sensitive to the antibiotic (growth inhibited by the antibiotic disc)” value does the source give for `O=C(N[C@H](CO)[C@H](O)c1ccc([N+](=O)[O-])cc1)C(Cl)Cl` [Chloramphenicol] here?
The value was “resistant”.

Which “CL145A resistant or sensitive to the antibiotic (growth inhibited by the antibiotic disc)” value does the source give for Penicillin here?
Its value is “resistant”.
